The values that follow are results of earlier work, collected in US5639783A, “Ketone derivatives” (Mitsubishi Chemical Corporation, priority 1991, dated 1997).

Series [1] relates to axon in brain trauma models of rat. The conditions noted are these: Journal of Neurosurgery, 65, p. 92 (1986); cited from earlier work.
Series [2] concerns microtubule-associated protein. The conditions noted are these: Brain Research, 526, p. 177 (1990); cited from earlier work.
The subject of series [3] is cardiac infarction animal models. The conditions noted are these: Arzneimittel Forschung/Drug Research, 36 (1986); cited from earlier work.

`CC(=O)N[C@@H](CC(C)C)C(=O)N[C@@H](CC(C)C)C(=O)N[C@H](C=O)CCCNC(=N)N` [leupeptin]: the “protection of axon in brain trauma models” value in series [1] was “can protect axon”.
For `CC(C)CCNC(=O)[C@H](CC(C)C)NC(=O)[C@H]1O[C@@H]1C(=O)O` [E-64-C], the “degradation of microtubule-associated protein after brain ischemia” value in series [2] is on record as “inhibits the degradation of microtubule-associated protein after the brain ischemia”.
As to `CCOC(=O)[C@@H]1O[C@H]1C(=O)NC(CC(C)C)C(=O)N1CCN(Cc2ccc(OC)c(OC)c2OC)CC1.CCOC(=O)[C@@H]1O[C@H]1C(=O)NC(CC(C)C)C(=O)N1CCN(Cc2ccc(OC)c(OC)c2OC)CC1.O=S(=O)(O)O` (stereo partly drawn) [NCO-700], the “effect on cardiac infarction” value in series [3] is on record as “effective on cardiac infarction”.
